The record followed here is US11858956B2, “6-aza-nucleoside prodrugs as antiviral agents for treating virus infections” (Southern Research Institute, priority 2020, dated 2024).

Holding throughout (format): cell-based
In series [1] the test system is CHIKV. Description: Antiviral activity against CHIKV in NHDF cells. The following applies: Chikungunya virus; for EC90: read-out: CHIKV (NHDF cells) EC90; for log reduction at 10 µM: read-out: CHIKV (NHDF cells) VTR (virus titer reduction).
The subject of series [2] is VEEV. Put plainly: microbe, parasite or virus in culture. Particulars: Venezuelan equine encephalitis virus, NHDF; for EC90: read-out: VEEV (NHDF cells) EC90; for log reduction at 10 µM: read-out: VEEV (NHDF cells) VTR (virus titer reduction).
Series [3] is described as follows: Cytotoxicity (CC50) in NHDF cells. Particulars: human, CHIKV. Here is the method: (§1) As used herein, “CC50” is intended to refer to the concentration of a substance (e.g., a compound or a drug) that is required for 50% reduction of cell viability. In one aspect, an CC50 can refer to the concentration of a substance that is required for 50% reduction (i.e., cytotoxicity) in vivo, as further defined elsewhere herein.
VTR=Virus titer reduction in log at 10 μM concentration. NT: not tested, ND: not determined.

The test system of series [4] is H1N1 strain. Put plainly: Antiviral activity against Influenza H1N1 strain in MDCK cells. The following applies: Influenza A virus; for log reduction at 20 µM: at 20 μM concentration, 4-6 hours pre-incubation, read-out: H1N1 strain (MDCK cells) VTR (virus titer reduction); for EC90: 4-6 hours pre-incubation with compound. Here is the method: (§2) The antiviral activity against Influenza viruses (H1N1 and H3N2 strains) evaluated in MDCK cells (4-6 hours pre-incubation with compound) shown in Table 5 below. VTR=Virus titer reduction in log at 20 μM concentration. NT: not tested, ND: not determined.

The subject of series [5] is H3N2 strain. Put plainly: Antiviral activity against Influenza H3N2 strain in MDCK cells. The following applies: Influenza A virus; for log reduction at 20 µM: at 20 μM concentration, 4-6 hours pre-incubation, read-out: H3N2 strain (MDCK cells) VTR (virus titer reduction); for EC90: 4-6 hours pre-incubation with compound. Here is the method:
as §2

Series [6] relates to ZIKA. Description: Antiviral activity against ZIKA in HEK 293 cells. The following applies: Zika virus; for EC90: HEK293, read-out: ZIKA (HEK 293 cells) EC90; for log reduction at 10 µM: HEK293, read-out: ZIKA (HEK 293 cells) VTR (virus titer reduction).
Series [7] has as its system WNV. Put plainly: Antiviral activity against WNV in HEK293 cells. Particulars: West Nile virus; for EC90: HEK293, read-out: WNV (HEK293 cells) EC90; for log reduction at 10 µM: HEK293, read-out: WNV (HEK293 cells) VTR (virus titer reduction).
Series [8] relates to DENV. Put plainly: Antiviral activity against DENV in HEK293 cells. Particulars: Dengue virus; for EC90: HEK293, read-out: DENV (HEK293 cells) EC90; for log reduction at 10 µM: HEK293, read-out: DENV (HEK293 cells) VTR (virus titer reduction).
Series [9] is described as follows: Cytotoxicity (CC50) in HEK293 cells. Particulars: human, WNV. Here is the method: as §1
The antiviral activity against Alpharviruses evaluated in HEK293 cells (4 hours pre-incubation with compound before infected with virus) is shown in Table 2 below. VTR=Virus titer reduction in log at 10 μM concentration. NT: not tested, ND: not determined

Series [10] can be described thus: Cytotoxicity (CC50) in MDCK cells. The following applies: dog, H1N1. Here is the method: as §1, §2

As to `CCOC(=O)[C@H](C)NP(=O)(OC[C@H]1O[C@@H](n2ncc(=O)[nH]c2=O)[C@H](O)[C@@H]1O)Oc1ccccc1` (mixture of isomers) [Compound 6, ethyl ((((2R,3S,4R,5R)-5-(3,5-dioxo-4,5-dihydro-1,2,4-triazin-2(3H)-yl)-3,4-dihydroxytetrahydrofuran-2-yl)methoxy)-(phenoxy)phosphoryl)-L-alaninate], the EC90 was greater than 10 µM in series [1]; greater than 10 µM in [2]; 12 µM in series [6]; 10 µM in series [7]; greater than 15 µM in [8]. The log reduction at 10 µM in series [1] and in series [2] was 0 in each case. For the same molecule, the CC50 in [3] was greater than 40 µM; in [9], greater than 40 µM; in [10], greater than 100 µM. The log reduction at 20 µM in series [4] worked out at 1.6; in series [5] it was 0.2.
Turning to `CC(C)COC(=O)[C@H](C)NP(=O)(OC[C@H]1O[C@@H](n2ncc(=O)[nH]c2=O)C(O)[C@H]1O)Oc1ccccc1` (stereo in doubt) [Compound 4, 2-isobutyl ((((2R,3S,4R,5R)-5-(3,5-dioxo-4,5-dihydro-1,2,4-triazin-2(3H)-yl)-3,4-dihydroxytetrahydrofuran-2-yl)methoxy)(phenoxy)phosphoryl)-L-alaninate], the EC90 was greater than 10 µM in [1]; 8.9 µM in series [2]; 4.8 µM in [6]; 1.2 µM in series [7]; 2 µM in series [8]. The log reduction at 10 µM in series [1] was found to be 0; in [2] it was 1.18; in series [6], 2; in [7], 3.1; in series [8] it was 2.2. In addition, the CC50 in series [3] was greater than 40 µM; in series [9], 40 µM; in [10], greater than 100 µM. Besides, the figures for the log reduction at 20 µM in series [4] and in [5] were 3.4 and 1.3, respectively.
As for `CC(C)[C@@H](N)C(=O)OC[C@H]1O[C@@H](n2ncc(=O)[nH]c2=O)C(O)[C@H]1O` (stereo partly drawn) [Compound 9, ((2r,3s,4r,5r)-5-(3,5-dioxo-4,5-dihydro-1,2,4-triazin-2(3H)-yl)-3,4-dihydroxytetrahydrofuran-2-yl) methyl-D-valinate], the EC90 in series [1] amounted to 1 µM; in [2], 3.04 µM; in [4], 0.77 µM; in [5], 2.41 µM; in [6], 1.4 µM; in series [7] it was 0.22 µM. Moreover, the EC90 in series [8] was determined as 1.3 µM. The log reduction at 10 µM in [1] stood at 1.34; in series [2] it was 3.1; in [6], 2; in series [7], 3.5; in [8] it was 3.2. In addition, the values for the CC50 in series [3], in [9] and in [10] were greater than 40 µM, 29 µM and 19.6 µM, respectively. Also, the log reduction at 20 µM in series [4] and in [5] was 3.4 throughout.
On to `COC(=O)[C@H](C)NP(=O)(OC[C@H]1O[C@@H](n2ncc(=O)[nH]c2=O)[C@H](O)[C@@H]1O)Oc1ccccc1` (mixture of isomers) [Compound 7, methyl ((((2R,3S,4R,5R)-5-(3,5-dioxo-4,5-dihydro-1,2,4-triazin-2(3H)-yl)-3,4-dihydroxytetrahydrofuran-2-yl)methoxy)-(phenoxy)phosphoryl)-L-alaninate], for which the EC90 in [1] is greater than 10 µM; in series [2], greater than 10 µM; in series [6], 7.6 µM; in series [7], 4.3 µM; in series [8], 5 µM. Further, the log reduction at 10 µM in [1] was 0; in series [2] it was 0; in [6], 1.3; in series [7], 2.6; in [8], 3.2. In addition, the 50% cytotoxic concentration (CC50) in series [3] was greater than 40 µM; in series [9], 40 µM; in [10], greater than 100 µM. The results for the log reduction at 20 µM in series [4] and in series [5] were 3.4 and 1.6, respectively.
Take `CCCCCCCCCCCCCCCCCC(=O)OC[C@H]1O[C@@H](n2ncc(=O)[nH]c2=O)[C@H](O)[C@@H]1O` [Compound 15, ((2r,3s,4r,5r)-5-(3,5-dioxo-4,5-dihydro-1,2,4-triazin-2(3H)-yl)-3,4-dihydroxytetrahydrofuran-2-yl)methyl stearate]: the EC90 is 0.31 µM in series [1]; greater than 10 µM in [2]; 0.75 µM in [4]; 3.29 µM in series [5]; 0.4 µM in series [6]; 0.33 µM in [7]. Besides, the EC90 in [8] was 0.16 µM. For the same molecule, the log reduction at 10 µM was 2.6 in series [1]; 0 in [2]; 3 in series [6]; 4.5 in [7]; 3.6 in series [8]. Moreover, the CC50 in series [3] was 7.96 µM; in series [9], 0.97 µM; in series [10], greater than 20 µM. For the same molecule, the log reduction at 20 µM was 3.3 in [4] and 3 in series [5].
In the case of `CCCC(CCC)C(=O)Nc1cnn([C@@H]2O[C@H](CO)[C@@H](O)[C@H]2O)c(=O)n1` [Compound 18, N-(2-((2r,3r,4s,5r)-3,4-dihydroxy-5-(hydroxymethyl)-tetrahydrofuran-2-yl)-3-oxo-2,3-dihydro-1,2,4-triazin-5-yl)-2-propylpentanamide], the EC90 is 3.2 µM in series [1]; greater than 10 µM in [2]; 0.66 µM in series [4]; 2.78 µM in series [5]; 0.1 µM in series [6]; 0.4 µM in [7]. For the same molecule, the EC90 in [8] was determined as 0.2 µM. Further, the log reduction at 10 µM amounted to 1.42 in series [1]; 0.13 in series [2]; 2.7 in series [6]; 2.8 in series [7]; 4 in series [8]. Also, the CC50 is greater than 40 µM in [3], 30.8 µM in series [9] and 19.6 µM in series [10]. The log reduction at 20 µM in series [4] was 3.3; in series [5] it was 3.4.
As for `C[C@H](NP(=O)(OC[C@H]1O[C@@H](n2ncc(=O)[nH]c2=O)[C@H](O)[C@@H]1O)Oc1ccccc1)C(=O)OCc1ccccc1` (mixture of isomers) [Compound 2, Benzyl ((((2R,3S,4R,5R)-5-(3,5-dioxo-4,5-dihydro-1,2,4-triazin-2(3H)-yl)-3,4-dihydroxytetrahydrofuran-2-yl)methoxy)-(phenoxy)phosphoryl)-L-alaninate], the EC90 was 0.4 µM in series [1]; greater than 10 µM in [2]; 16 µM in [6]; 1.3 µM in [7]; 6.9 µM in series [8]. Moreover, the log reduction at 10 µM in series [1] was 0; in [2], 0; in series [7], 3; in [8] it was 1.3. Moreover, the CC50 in series [3] was greater than 40 µM; in [9], greater than 40 µM; in [10] it was greater than 100 µM. Further, the values for the log reduction at 20 µM in series [4] and in series [5] were 2.3 and 0.9, respectively.
`CC[C@H](C)[C@H](N)C(=O)OC[C@H]1O[C@@H](n2ncc(=O)[nH]c2=O)[C@H](O)[C@@H]1O` [Compound 10, ((2r,3s,4r,5r)-5-(3,5-dioxo-4,5-dihydro-1,2,4-triazin-2(3H)-yl)-3,4-dihydroxytetrahydrofuran-2-yl)methyl L-isoleucinate]: the concentration for an effect of 90% (EC90) in series [1] was greater than 10 µM; in [2] it was 0.62 µM; in [4], 3.68 µM; in series [5], 3.33 µM; in [6], 0.5 µM; in [7], 0.2 µM. Also, in [8], the EC90 turned out to be 0.3 µM. In addition, the log reduction at 10 µM in series [1] is 0.39; in series [2], 3.51; in [6], 3.1; in [7], 3.9; in series [8] it was 3.4. The CC50 is greater than 40 µM in series [3], 29 µM in [9] and 19.3 µM in [10]. Besides, the log reduction at 20 µM in series [4] and in series [5] was 3.4 throughout.

For orientation: EC90 means the point of the concentration-response curve where the effect stands at 90%. The term CC50 denotes the concentration at which the toxic effect on the cells reaches its halfway point. Read a low CC50 as harm at low concentration.
